Laboratory results reported in patent US20240226255A9, “COMPOSITIONS AND METHODS FOR ACTIVATING NK CELLS” (The Regents of the University of California, priority 2021, published 2024).

Assays:
[1] = system: vector-alone transfected HEp2 cells; assay: 51Cr release: NK cell lysis of Sulindac treated vector-alone transfected HEp2 cells; assay type: cell-based; conditions: Sulindac 50-200 μm for 3-4 hours, vs non-treated HEp2 cells
Method: . (FIG. 17A) 4×10^6 vector-alone transfected HEp2 cells were labeled with ^51Cr for 1 hour at 37° C. […] Treatment of NK cells with IL-2 was carried out for 8-12 hours before their addition to the target cells. […] After an overnight incubation the cells were washed to remove the drugs, and the tumor cells were then co-cultured in the presence of untreated and IL-2 (500 u/ml) treated NK cells. After 48 hours of incubation the supernatants were removed from the NK-HEp2 cell co-cultures and assayed for released GM-CSF.

[2] = Osteonecrosis of the jaw (ONJ) after ZOL injection and molar extraction; assay type: in vivo; conditions: Rag2−/− mice injected with ZOL
Method: (§1) 7-week old female WT mice, and female Rag2^−/− mice (B6(Cg)-Rag2tm1.1Cgn/J null mutation in recombination-activating gene-2 resulting in the deficiency of B and T lymphocytes) were purchased from the Jackson Laboratory, Bar Harbor, ME. The UCLA Animal Research Committee reviewed and approved all experimental protocols involving animals (ARC 1997-136). Female WT mice and Rag2^−/− mice were injected with the single injection of 500 μg/kg ZOL or 0.9% NaCl vehicle solution via tail vein.
(§2) After 1-week of the ZOL and NaCl injection maxillary first molar was extracted as described previously. During the extraction procedure, mice were anesthetized via continuous inhalation of 2-4% isoflurane mixed with oxygen and placed on a custom-made surgical table in a supine position using the fixed positioner on the maxillary incisors. Immediately prior to tooth extraction, 5.0 mg/kg carprofen was subcutaneously injected, and mice received 5.0 mg/kg carprofen injection every 24 h for 48 h. Mice were sacrificed and various tissues were studied 4-weeks after the tooth extraction.

[3] = system: BM cells, splenocytes, spleen-purified NK cells, oral gingiva cells; assay: IFN-γ ELISA of IL-2 cultured tissue cells from mice given ZOL or NaCl, then molar extraction; assay type: in vivo; conditions: for ZOL-induced decrease in IFN-γ: oral tooth extraction site
Method: as §1, §2
Single cell-suspension from each tissue of WT and Rag2^−/− female mice were activated with IL-2 (10,000 U/ml) for 5 days before the supernatants/culture media were harvested after to determine the levels of IFN-γ secretion. IFN-γ ELISAs were performed and standard curve was generated as described previously. A standard curve was generated by either two or three-fold dilution of recombinant IFN-γ provided by the manufacturer to analyze and obtain the IFN-γ concentration (Biolegend, San Diego, CA).
WT and RAG2 mice were administered with either 0.9% NaCl or ZOL (500 μg/kg) via tail vein followed by maxillary left first molar extraction as described in Materials and Methods section. Week 4 after the tooth extraction, animals were sacrificed, BM cells, splenocytes, splenocytes-purified NK cells and oral gingiva cells were cultured at (1×10^6 cells/ml) each treated with IL-2 (10000 U/ml) for 5 days, after which the supernatants were harvested and the levels of IFN-γ were determined using specific ELISA. Modulation of IFN-7 by ZOL in both WT and RAG2 mice models were determined, and fold change in comparison to NaCl controls was calculated for each tissue.

st63 cells = conditions: Rag2−/− mice
Method: RAG2 mice were administered with either 0.9% NaCl or ZOL (500 μg/kg) via tail vein followed by maxillary left first molar extraction as described in Materials and Methods section. […] Week 4 after the tooth extraction, animals were sacrificed, BM cells (n=9), splenocytes (n=9), and NK cells purified from splenocytes (n=5) were cultured at (1×10^6 cells/ml) each treated with IL-2 (10000 U/ml) for 5 days, after which the cells were used as effector cells against tumor targets. Cytotoxicity assays were performed using standard 4-hour ^51Cr release assay against st63 cells, and the LU 30/10^6 cells were determined using inverse number of cells required to lyse 30% of st63 cells×100 (FIG. 16B).
Single cell-suspension from each tissue and spleen-purified NK cells from WT and Rag2^−/− mice female mice were activated with IL-2 (10,000 U/ml) for 5 days and were used as effector cells on day 5. […] After that, the supernatants were harvested from each sample and released radioactivity was counted using the gamma counter. The percentage (%) specific cytotoxicity was calculated as follows:
% Cytotoxicity=Experimental cpm−spontaneous cpm/Total cpm−spontaneous cpm • Lytic Units (LU) 30/10^6 was calculated by using the inverse of the number of effector cells needed to lyse 30% of tumor target ST63 cells×100.

YAC-1 cells = assay: 4 h 51Chromium release assay of mouse NK cells cultured with monocytes ± LPS against YAC-1; assay type: cell-based; conditions: IL-2-treated WT NK cells + monocytes from control WT littermates; LPS 20 ng/mL
Method: (§3) Afterward, NK cells were used as effector cells in a standard 4 h ^51Chromium release assay against YAC-1 cells. […] NK cells were treated as described in (FIG. 4A) and afterward the supernatant was removed from the co-cultures and the levels of IFN-γ secretion were determined using specific ELISAs. *P<0.05 was obtained for differences in secretion of IFN-γ between untreated and LPS-treated NK cells cultured with monocytes from control littermates or those from Cox-2flox/flox;LysMCre/+ mice (FIG. 4B). NK cells were prepared as described in (FIG. 4A) and used as effector cells against DCs derived from monocytes from either wild type or Cox-2flox/flox; LysMCre/+ mice in a standard 4 h ^51Chromium release assay. […] One of several representative experiments is shown in this figure.
(§4) Similar results to those seen with YAC-1 targets were also seen when control and Cox-2flox/flox;LysMCre/+ DCs were used as targets (FIG. 4C).

OSCSCs = assay: 4 h 51Chromium release assay of human NK cells against OSCSCs; assay type: cell-based; conditions: LPS 20 ng/mL, 24-48 h
Method: (§5) Afterward, the cytotoxicity against OSCSCs was assessed using a standard 4 h ^51Chromium release assay. […] NK cells were prepared as described in FIG. 5A. […] One of several representative experiments is shown in this figure.
(§6) Human NK cells were purified from healthy donors and left untreated or treated with IL-2 (1000 U/mL) or the combination of IL-2 (1000 U/mL) and anti-CD16mAb (3 μg/mL) in the presence of sAJ2 (NK cell:sAJ2, 1:3), autologous monocytes (NK cell:monocytes, 1:1) or the combination of sAJ2 (NK cell:sAJ2, 1:3) and autologous monocytes (NK cell:monocytes, 1:1) for 24-48 h. Afterward, the cytotoxicity against OSCSCs cells was assessed using a standard 4 h ^51Chromium release assay. […] NK cells were prepared as described in FIG. 6A and after the treatment period, the supernatants were removed from the co-cultures and the levels of IFN-γ cytokine were measured with specific ELISA. *P<0.05 was obtained for the differences in cytotoxicity and IFN-γ secretion between human NK cells cultured in media and those treated with sAJ2, monocytes or the combination of sAJ2 and monocytes. One of several representative experiments is shown in this figure (FIG. 8B). […] After an overnight incubation, the supernatants were collected and the levels of IFN-γ, IL-15, IFN-α, and IL-12 were determined by ELISAs in a multiplexed format using Luminex technology (FIG. 8C). […]

NK cells [4] = assay: IFN-γ ELISA of mouse NK cell-monocyte co-cultures ± LPS; assay type: cell-based; conditions: LPS 20 ng/mL
Method: as §3, §4

NK cells [5] = assay: IFN-γ ELISA of human NK cell cultures; assay type: cell-based; conditions: LPS 20 ng/mL, 24-48 h
Method: as §5, §6

[6] = system: DCs from wild type or Cox-2flox/flox;LysMCre/+ mice; assay: 4 h 51Chromium release assay of mouse NK cells ± LPS against monocyte-derived DCs; assay type: cell-based; conditions: IL-2-treated WT NK cells + WT or KO monocytes
Method: as §3, §4

With `CC1=C(CC(=O)O)c2cc(F)ccc2/C1=C\c1ccc([S+](C)[O-])cc1` (stereo not shown) [Sulindac] as the compound, how does the “NK cell lysis of treated HEp2 cells” value [1] read?
Its value is “increased lysis”.

Which results are given for `O=P(O)(O)C(O)(Cn1ccnc1)P(=O)(O)O` [ZOL, zolendronate]?
ONJ [2]: no ONJ was seen; ZOL-induced increase in IFN-γ ([3]; BM, Rag2−/− mice): 50-75%; IFN-γ secretion after ZOL injections ([3]; BM, Rag2−/− mice, vs NaCl): significantly increased; ZOL-induced increase in IFN-γ ([3]; BM, WT mice): 300-500%; Fold change in IFN-γ secretion (ZOL group/NaCl group) ([3]; Bone marrow, Rag2−/− (Rag KO) mice, ZOL 500 μg/kg): 1.5-1.75 fold; Fold change in IFN-γ secretion (ZOL group/NaCl group) ([3]; Bone marrow, WT mice, ZOL 500 μg/kg tail vein, week 4 after tooth extraction, cells + IL-2 5 days): 4-6 fold; Fold change in IFN-γ secretion (ZOL group/NaCl group) ([3]; Gingiva, Rag2−/− (Rag KO) mice, ZOL 500 μg/kg): 0.22-0.35 fold; Fold change in IFN-γ secretion (ZOL group/NaCl group) ([3]; Gingiva, WT mice, ZOL 500 μg/kg): 0.3-0.5 fold; ZOL-induced drop in IFN-γ ([3]; NK cells purified from splenocytes, Rag2−/− mice): 58-65%; ZOL-induced increase in IFN-γ ([3]; NK cells purified from splenocytes, WT mice): 20-90%; Fold change in IFN-γ secretion (ZOL group/NaCl group) ([3]; Spleen, Rag2−/− (Rag KO) mice, ZOL 500 μg/kg): 0.5-0.66 fold; Fold change in IFN-γ secretion (ZOL group/NaCl group) ([3]; Spleen, WT mice, ZOL 500 μg/kg): 2-3.4 fold; Fold change in IFN-γ secretion (ZOL group/NaCl group) ([3]; Spleen-purified NK cells, Rag2−/− (Rag KO) mice, ZOL 500 μg/kg): 0.35-0.42 fold; Fold change in IFN-γ secretion (ZOL group/NaCl group) ([3]; Spleen-purified NK cells, WT mice, ZOL 500 μg/kg): 1.2-1.9 fold; ZOL-induced decrease in IFN-γ ([3]; Rag2−/− mice): 65-78%; ZOL-induced decrease in IFN-γ ([3]; WT mice): 50-70%; secretion of IFN-γ after ZOL intake ([3]; spleen, spleen-purified NK cells and oral gingiva cells, Rag2−/− mice): blocked; ZOL-induced drop in IFN-γ ([3]; splenocytes, Rag2−/− mice): 34-50%; ZOL-induced increase in IFN-γ ([3]; splenocytes, WT mice): 100-240%; NK cell-mediated cytotoxicity after ZOL injections (st63 cells; BM, vs NaCl): significantly increased; NK cell-mediated cytotoxicity with ZOL (st63 cells; spleen and spleen-purified NK cells): blocked

For Lipopolysaccharide [LPS], which “NK cells' ability to lyse YAC-1 cells” value (YAC-1 cells) is on record?
Its value is “complete shutdown”.

And the “NK cell-mediated cytotoxicity against OSCSCs” value (OSCSCs)?
Its value is “loss”.

What about the IFN-γ secretion (NK cells [4]; IL-2-treated WT NK cells + monocytes from Cox-2flox/flox;LysMCre/+ mice) of the same compound?
The IFN-γ secretion was “increasing IFN-γ secretion significantly”.

And the “amount of IFN-γ secreted by the NK cells” value (NK cells [4]; IL-2-treated WT NK cells + monocytes from control WT littermates)?
The value was “increased”.

And the IFN-γ secretion (NK cells [5])?
Its IFN-γ secretion is “increasing”.

And the “NK cell cytotoxicity against wild type and Cox-2flox/flox;LysMCre/+ DCs” value [6]?
The value was “decreased”.
